Patent publication US8288145B2, “Medium supplement for virus production” (AVIR Green Hills Biotechnology, priority 2006, dated 2012)
Values joined by “and” are separate entries in the source; they are usually repeats but may differ in a detail not shown here. Equal values may be shown once.

Columns and labels:
SV40 virus DNA = conditions: Borden E. et al. 1979, 1981; cited from earlier work
[1] = test system: Enzephalomyocarditis virus RNA; conditions: Borden E. et al. 1979, 1981; cited from earlier work
[2] = test system: B/Vienna/32/2006 (B/Malaysia/2506/2004-like); type: cell-based, influenza B
[3] = test system: A/Wisconsin/67/2005 (H3N2)-like virus; type: cell-based, influenza A virus
[4] = test system: A/Vienna/28/2006 (H3N2) (A/Wisconsin/67/2005-like); type: cell-based, influenza A virus
[5] = test system: A/New Caledonia/20/99 (H1N1)-like ΔNS1 virus; type: cell-based, influenza A virus
[6] = test system: A/New Caledonia/20/99 (H1N1); type: cell-based, influenza A virus
influenza B virus = type: cell-based

## COC(=O)[C@H]1[C@@H]2C[C@@H](O[C@@H]3O[C@H](C)[C@@H](O)[C@H](N)[C@@H]3O)/C=C/C=C/C=C/C=C/C=C/C=C/C=C/[C@H](C)[C@@H](O)[C@@H](C)[C@H](C)OC(=O)C[C@H](O)C[C@H](O)CC[C@@H](O)[C@H](O)C[C@H](O)C[C@](O)(C[C@@H]1O)O2 [Amphotericin B methyl ester]
SV40 virus DNA
  infectivity of viral DNA: increase the infectivity
[1]
  infectivity of viral RNA: increase the infectivity

## C[C@@H]1[C@H](O)[C@@H](C)/C=C/C=C/C=C/C=C/C=C/C=C/C=C/[C@H](O[C@@H]2O[C@H](C)[C@@H](O)[C@H](N)[C@@H]2O)C[C@@H]2O[C@](O)(C[C@@H](O)C[C@@H](O)[C@H](O)CC[C@@H](O)C[C@@H](O)CC(=O)O[C@H]1C)C[C@H](O)[C@H]2C(=O)O [amphotericin B]
[2]
  titre of B virus in the presence of amphotericin B: more than 1E+08 pfu/ml
[3]
  cytopathic effect of transfectant virus: clear cytopathic effect
  titre of transfectant virus: 2E+04 TCID50/ml and 2.0E+04 TCID50/ml
[4]
  higher virus titre if grown in the presence of amphotericin B: ≥ 1 log
[5]
  increase of sensitivity (titre) of TCID50 titration: ~1 log
[6]
  less virus obtained when no amphotericin B is added: 1 log
Influenza B virus
  clinical samples positive for virus isolation: 9
